Among the data in ChEMBL document CHEMBL1909046, “DrugMatrix in vitro pharmacology data” are IC50 and Ki values, retold here.

Molecules are shown by their SMILES.

Chain of Melanocortin receptor 4 (P32245 whole entry): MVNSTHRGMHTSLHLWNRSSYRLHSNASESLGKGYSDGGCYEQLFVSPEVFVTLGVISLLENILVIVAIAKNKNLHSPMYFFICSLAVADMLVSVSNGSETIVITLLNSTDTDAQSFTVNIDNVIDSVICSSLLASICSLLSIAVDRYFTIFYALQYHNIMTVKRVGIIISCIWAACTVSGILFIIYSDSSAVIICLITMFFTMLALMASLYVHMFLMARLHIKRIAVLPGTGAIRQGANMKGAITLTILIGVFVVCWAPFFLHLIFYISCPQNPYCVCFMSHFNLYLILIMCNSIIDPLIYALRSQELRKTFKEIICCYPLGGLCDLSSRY

In one assay the target is T1, Alpha-1A adrenergic receptor (Rattus norvegicus, UniProt P43140).
T1 sequence (P43140 whole entry): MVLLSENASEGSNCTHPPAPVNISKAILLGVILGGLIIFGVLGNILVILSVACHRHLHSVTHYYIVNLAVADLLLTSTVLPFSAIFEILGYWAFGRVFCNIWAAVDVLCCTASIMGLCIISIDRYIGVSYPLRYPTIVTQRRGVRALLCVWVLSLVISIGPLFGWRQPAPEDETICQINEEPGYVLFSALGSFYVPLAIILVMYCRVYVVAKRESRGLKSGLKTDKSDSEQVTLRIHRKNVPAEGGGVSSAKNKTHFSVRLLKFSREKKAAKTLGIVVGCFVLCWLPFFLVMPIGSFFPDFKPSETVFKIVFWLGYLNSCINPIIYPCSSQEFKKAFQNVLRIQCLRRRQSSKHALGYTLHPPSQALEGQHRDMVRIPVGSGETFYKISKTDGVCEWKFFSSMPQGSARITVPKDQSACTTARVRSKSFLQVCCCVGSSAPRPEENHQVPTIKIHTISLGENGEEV
Description: DRUGMATRIX: Alpha-1A adrenergic receptor radioligand binding (ligand: prazosin). The assay is classed as cell membranes, Wistar, Submaxillary gland, Membrane. Conditions: Not Active = under 50% inhibition at 10 µM.
Take `COc1cc([C@@H]2c3cc4c(cc3[C@@H](O[C@@H]3O[C@@H]5CO[C@@H](C)O[C@H]5[C@H](O)[C@H]3O)[C@H]3COC(=O)[C@H]23)OCO4)cc(OC)c1O` [ETOPOSIDE]: the IC50 result is given as “Not Active”.
Still for that read-out and setting: for `C=CCc1ccc(O)c(OC)c1` [EUGENOL] the value was “Not Active”; for `CC(C(=O)O)c1cccc(Oc2ccccc2)c1` (configuration not stated) [FENOPROFEN], “Not Active”; for `CC(C)(C)NC(=O)[C@H]1CC[C@H]2[C@@H]3CC[C@H]4NC(=O)C=C[C@]4(C)[C@H]3CC[C@]12C` [FINASTERIDE], “Not Active”.
Turning to `COc1ccc2c3c1O[C@H]1C[C@@H](O)C=C[C@@]31CCN(C)C2` [GALANTAMINE], the IC50 result is given as “Not Active”.
Still for that read-out and setting: under `Nc1ccn([C@@H]2O[C@H](CO)[C@@H](O)C2(F)F)c(=O)n1` [GEMCITABINE] stands “Not Active”; under `CC(C)=CCC/C(C)=C/CO` [GERANIOL], “Not Active”; under `Oc1c(Cl)cc(Cl)c(Cl)c1Cc1c(O)c(Cl)cc(Cl)c1Cl` [HEXACHLOROPHENE], “Not Active”.
`NNc1nncc2ccccc12` [HYDRALAZINE]: the IC50 result was “Not Active”.
Still for that read-out and setting: under `CC(=O)[C@@]1(O)CC[C@H]2[C@@H]3CCC4=CC(=O)CC[C@]4(C)[C@H]3CC[C@@]21C` [HYDROXYPROGESTERONE] stands “Not Active”.
The same measure, in the same setting: under `COC1=C(OC)C(=O)C(CCCCCCCCCCO)=C(C)C1=O` [IDEBENONE] stands “Not Active”.

The target in another assay is T2, Alpha-1B adrenergic receptor (Rattus norvegicus, UniProt P15823).
T2 sequence (P15823 whole entry): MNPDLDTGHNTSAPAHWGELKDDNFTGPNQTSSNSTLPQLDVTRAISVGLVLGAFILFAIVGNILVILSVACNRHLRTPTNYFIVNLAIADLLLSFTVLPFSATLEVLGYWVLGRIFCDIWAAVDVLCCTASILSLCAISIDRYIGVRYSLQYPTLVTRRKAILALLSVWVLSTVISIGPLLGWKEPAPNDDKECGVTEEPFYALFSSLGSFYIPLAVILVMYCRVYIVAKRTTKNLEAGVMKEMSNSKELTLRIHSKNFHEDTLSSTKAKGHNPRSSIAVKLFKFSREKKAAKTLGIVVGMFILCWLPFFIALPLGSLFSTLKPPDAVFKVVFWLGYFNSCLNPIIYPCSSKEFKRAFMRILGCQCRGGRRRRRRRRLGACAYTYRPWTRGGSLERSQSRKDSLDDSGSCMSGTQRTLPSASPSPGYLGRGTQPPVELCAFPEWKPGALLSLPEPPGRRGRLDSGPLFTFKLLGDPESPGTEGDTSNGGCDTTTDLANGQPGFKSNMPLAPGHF
Description: DRUGMATRIX: Alpha-1B adrenergic receptor radioligand binding (ligand: prazosin). Particulars: Not Active = under 50% inhibition at 10 µM. The assay is classed as cell membranes, Wistar, Liver, Membrane.
`COc1cc([C@@H]2c3cc4c(cc3[C@@H](O[C@@H]3O[C@@H]5CO[C@@H](C)O[C@H]5[C@H](O)[C@H]3O)[C@H]3COC(=O)[C@H]23)OCO4)cc(OC)c1O` [ETOPOSIDE]: the IC50 result is on record as “Not Active”.
The same measure, in the same setting: for `C=CCc1ccc(O)c(OC)c1` [EUGENOL] the value was “Not Active”; for `CC(C(=O)O)c1cccc(Oc2ccccc2)c1` (configuration not stated) [FENOPROFEN], “Not Active”.
On the same count and under the same terms, under `CC(C)(C)NC(=O)[C@H]1CC[C@H]2[C@@H]3CC[C@H]4NC(=O)C=C[C@]4(C)[C@H]3CC[C@]12C` [FINASTERIDE] stands “Not Active”.
On the same count and under the same terms, for `COc1ccc2c3c1O[C@H]1C[C@@H](O)C=C[C@@]31CCN(C)C2` [GALANTAMINE] the value was “Not Active”; for `Nc1ccn([C@@H]2O[C@H](CO)[C@@H](O)C2(F)F)c(=O)n1` [GEMCITABINE], “Not Active”; for `CC(C)=CCC/C(C)=C/CO` [GERANIOL], “Not Active”.
For the compound `Oc1c(Cl)cc(Cl)c(Cl)c1Cc1c(O)c(Cl)cc(Cl)c1Cl` [HEXACHLOROPHENE], the IC50 entry is “Not Active”.
Same read-out and setting: for `NNc1nncc2ccccc12` [HYDRALAZINE] the value was “Not Active”.
In the case of `CC(=O)[C@@]1(O)CC[C@H]2[C@@H]3CCC4=CC(=O)CC[C@]4(C)[C@H]3CC[C@@]21C` [HYDROXYPROGESTERONE], the IC50 entry is “Not Active”.
On the same count and under the same terms, under `COC1=C(OC)C(=O)C(CCCCCCCCCCO)=C(C)C1=O` [IDEBENONE] stands “Not Active”.

Tested on in a further assay: not listed separately
Description: DRUGMATRIX: Calcium Channel Type L, Benzothiazepine radioligand binding (ligand: [3H] Diltiazem). The assay is classed as cell membranes, Rattus norvegicus, Wistar, Brain, Membrane. Particulars: Not Active = under 50% inhibition at 10 µM.
In the case of `COc1cc([C@@H]2c3cc4c(cc3[C@@H](O[C@@H]3O[C@@H]5CO[C@@H](C)O[C@H]5[C@H](O)[C@H]3O)[C@H]3COC(=O)[C@H]23)OCO4)cc(OC)c1O` [ETOPOSIDE], the IC50 entry is recorded as “Not Active” and the Ki entry is “Not Active”.
Regarding `C=CCc1ccc(O)c(OC)c1` [EUGENOL], the IC50 result is on record as “Not Active” and the Ki entry is listed as “Not Active”.
On to `CC(C(=O)O)c1cccc(Oc2ccccc2)c1` (configuration not stated) [FENOPROFEN], for which the IC50 entry was “Not Active” and the Ki entry is on record as “Not Active”.
`CC(C)(C)NC(=O)[C@H]1CC[C@H]2[C@@H]3CC[C@H]4NC(=O)C=C[C@]4(C)[C@H]3CC[C@]12C` [FINASTERIDE]: the IC50 result is “Not Active” and the Ki entry is given as “Not Active”.
Take `COc1ccc2c3c1O[C@H]1C[C@@H](O)C=C[C@@]31CCN(C)C2` [GALANTAMINE]: the IC50 result was “Not Active” and the Ki result was “Not Active”.
Take `Nc1ccn([C@@H]2O[C@H](CO)[C@@H](O)C2(F)F)c(=O)n1` [GEMCITABINE]: the IC50 result was “Not Active” and the Ki result is “Not Active”.
`CC(C)=CCC/C(C)=C/CO` [GERANIOL]: the IC50 result is “Not Active” and the Ki result was “Not Active”.
In the case of `Oc1c(Cl)cc(Cl)c(Cl)c1Cc1c(O)c(Cl)cc(Cl)c1Cl` [HEXACHLOROPHENE], the IC50 result is on record as “Not Active” and the Ki result is “Not Active”.
On to `NNc1nncc2ccccc12` [HYDRALAZINE], for which the IC50 entry is given as “Not Active” and the Ki entry is “Not Active”.
Regarding `CC(=O)[C@@]1(O)CC[C@H]2[C@@H]3CCC4=CC(=O)CC[C@]4(C)[C@H]3CC[C@@]21C` [HYDROXYPROGESTERONE], the IC50 entry was “Not Active” and the Ki entry was “Not Active”.
Turning to `COC1=C(OC)C(=O)C(CCCCCCCCCCO)=C(C)C1=O` [IDEBENONE], the IC50 result was “Not Active” and the Ki entry is given as “Not Active”.

Tested on in the next assay: not listed separately
The experiment in a line: DRUGMATRIX: Calcium Channel Type L, Phenylalkylamine radioligand binding (ligand: [3H] (-)-Desmethoxyverapamil (D-888)). The assay is classed as cell membranes, Rattus norvegicus, Wistar, Brain, Membrane. Conditions: Not Active = under 50% inhibition at 10 µM.
Turning to `COc1cc([C@@H]2c3cc4c(cc3[C@@H](O[C@@H]3O[C@@H]5CO[C@@H](C)O[C@H]5[C@H](O)[C@H]3O)[C@H]3COC(=O)[C@H]23)OCO4)cc(OC)c1O` [ETOPOSIDE], the IC50 result was “Not Active” and the Ki entry was “Not Active”.
With `C=CCc1ccc(O)c(OC)c1` [EUGENOL], the IC50 result was “Not Active” and the Ki entry was “Not Active”.
For `CC(C(=O)O)c1cccc(Oc2ccccc2)c1` (configuration not stated) [FENOPROFEN], the IC50 result was “Not Active” and the Ki result is recorded as “Not Active”.
As to `CC(C)(C)NC(=O)[C@H]1CC[C@H]2[C@@H]3CC[C@H]4NC(=O)C=C[C@]4(C)[C@H]3CC[C@]12C` [FINASTERIDE], the IC50 result is recorded as “Not Active” and the Ki entry is given as “Not Active”.
With `COc1ccc2c3c1O[C@H]1C[C@@H](O)C=C[C@@]31CCN(C)C2` [GALANTAMINE], the IC50 result was “Not Active” and the Ki entry is reported as “Not Active”.
As for `Nc1ccn([C@@H]2O[C@H](CO)[C@@H](O)C2(F)F)c(=O)n1` [GEMCITABINE], the IC50 result is on record as “Not Active” and the Ki entry is listed as “Not Active”.
For `CC(C)=CCC/C(C)=C/CO` [GERANIOL], the IC50 result is on record as “Not Active” and the Ki entry is recorded as “Not Active”.
In the case of `Oc1c(Cl)cc(Cl)c(Cl)c1Cc1c(O)c(Cl)cc(Cl)c1Cl` [HEXACHLOROPHENE], the IC50 result was “Not Active” and the Ki result is on record as “Not Active”.
Regarding `NNc1nncc2ccccc12` [HYDRALAZINE], the IC50 entry was “Not Active” and the Ki entry is “Not Active”.
For `CC(=O)[C@@]1(O)CC[C@H]2[C@@H]3CCC4=CC(=O)CC[C@]4(C)[C@H]3CC[C@@]21C` [HYDROXYPROGESTERONE], the IC50 entry was “Not Active” and the Ki result is listed as “Not Active”.
On to `COC1=C(OC)C(=O)C(CCCCCCCCCCO)=C(C)C1=O` [IDEBENONE], for which the IC50 result is “Not Active” and the Ki entry is on record as “Not Active”.

Another assay addresses Melanocortin receptor 4 (Homo sapiens, UniProt P32245). The assay is classed as cell membranes, HEK293, Membrane. Particulars: hek293.
For the compound `COc1cc([C@@H]2c3cc4c(cc3[C@@H](O[C@@H]3O[C@@H]5CO[C@@H](C)O[C@H]5[C@H](O)[C@H]3O)[C@H]3COC(=O)[C@H]23)OCO4)cc(OC)c1O` [ETOPOSIDE], the IC50 result is listed as “Not Active”.
Same read-out and setting: under `C=CCc1ccc(O)c(OC)c1` [EUGENOL] stands “Not Active”.
The same measure, in the same setting: under `CC(C(=O)O)c1cccc(Oc2ccccc2)c1` (configuration not stated) [FENOPROFEN] stands “Not Active”; under `CC(C)(C)NC(=O)[C@H]1CC[C@H]2[C@@H]3CC[C@H]4NC(=O)C=C[C@]4(C)[C@H]3CC[C@]12C` [FINASTERIDE], “Not Active”; under `COc1ccc2c3c1O[C@H]1C[C@@H](O)C=C[C@@]31CCN(C)C2` [GALANTAMINE], “Not Active”.
Same read-out and setting: for `Nc1ccn([C@@H]2O[C@H](CO)[C@@H](O)C2(F)F)c(=O)n1` [GEMCITABINE] the value was “Not Active”.
For `CC(C)=CCC/C(C)=C/CO` [GERANIOL], the IC50 entry is given as “Not Active”.
On the same count and under the same terms, for `Oc1c(Cl)cc(Cl)c(Cl)c1Cc1c(O)c(Cl)cc(Cl)c1Cl` [HEXACHLOROPHENE] the value was “Not Active”; for `NNc1nncc2ccccc12` [HYDRALAZINE], “Not Active”.
Same read-out and setting: for `CC(=O)[C@@]1(O)CC[C@H]2[C@@H]3CCC4=CC(=O)CC[C@]4(C)[C@H]3CC[C@@]21C` [HYDROXYPROGESTERONE] the value was “Not Active”; for `COC1=C(OC)C(=O)C(CCCCCCCCCCO)=C(C)C1=O` [IDEBENONE], “Not Active”.
